Data as given in patent publication US7691849B2, “Carboxamidine derivatives and their use in the treatment of vascular diseases” (CytRx Corporation, priority 2002, dated 2010).

Tests used:
[1] = system: thoracic aorta of SH rats; experiment: Morphological testing of the thoracic aortas with electron microscopy; format: in vivo, rat; set-up: key: 1 was used to refer to cases where no regeneration was observable; 2 refers to weak; 3 to average; 4 to good; 5 to strong regeneration; conditions: SH rats treated one month, scale of 1 to 5, electron microscopy of thoracic aorta
Method: (§1) Three-month-old, genetically hypertonic (SH) Wistar Okamoto rats were treated for one month with various test compounds. Thereafter the functional and morphological tests were performed.
Morphological Testing of the Thoracic Aortas with Electron Microscopy
The test was performed according to the procedure known from the literature (Br. J. of Pharmacol., 1995; 115, 415-420). 1 mm^2 pieces of the aorta wall was cut out of the thoracic aorta of the rats, and were then fixed with 2.5% glutaraldehyde at room temperature for 2 hours. This was followed by a post-fixation with 1% osmium tetroxide for 1 hour. Afterwards, the tissue pieces were dehydrated with ethanol, and embedded in Durcupan ACM. The samples were evaluated qualitatively based on the images recorded on a Hitachi 7100 electron microscope.
On the scale, 1 was used to refer to cases where no regeneration was observable, 2 refers to weak, 3 to average, 4 to good, and 5 to strong regeneration.

[2] = system: thoracic aorta of SH rats; experiment: Vaso-relaxing effect on the thoracic aorta of SH rats treated for one month (in vitro testing of aorta rings); format: in vivo, rat; conditions: aorta rings contracted with 10^-6 M methoxamine
Method: In the following, we give the results of the test of blood vessel relaxing effect, performed in vitro on rat vessels, and also the morpholocial results of the thoracic aorta.
as §1
The Vaso-relaxing Effect of the Compounds of the Invention on the Thoracic Aorta of SH Rats (in Vitro Testing)
The test was performed by the method known from the literature [Japan J. Pharmacol., 59, 339-347 (1992)]. The SH rats were anesthetized with Nembutal (40 mg/kg, i. p.), then the thoracic aorta was removed and placed in oxygenized (95% O2+5% CO2) Krebs-Henseleit solution. The composition of the solution (mM): NaCl 118, KCl 4,7, CaCl2 2,52, MgSO4 1,64, NaHCO3 24,88, KH2PO4 1,18, glucose 5,5. The 3-mm-long aorta rings were suspended in a 20 ml organ bath of 37° C. The resting tension was 1 g, which was maintained throughout the equilibration. During the 1 hour equilibration, the medium was changed in every 20 minutes. The vessels were contracted with 10^−6 M methoxamine (approx. 80% of maximal contraction). After reaching the maximal contraction, we tested the vasodilation resulting as the effect of the acetylcholine (Ach) (10^−6-10^−4 M), which informed us about the condition of the endothelium of the vessel wall. The contraction force was measured by an isometric strain gauge (SG-01D, Experimentia Ltd), and was registered on an OH-850 polygraph (Radelkis). At this time again, 5,6-dihydro-5-(1-piperidinyi)-methyl-3-(3-pyridyl)-4H-1,2,4-oxadiazine as described in WO 98/06400 was used as a reference compound.

[3] = system: human umbilical vein endothelial cells (HUVEC); experiment: Wounding migration assay in endothelial cell culture; format: cell-based; conditions: wounded HUVEC monolayer, 24 hours after wounding, active agent 10^-6 M
Description: The following compounds of the Invention are especially preferable: • 1. N-[3-(1-piperidinyl)propoxy]-pyridin-1-oxide-3-carboxamidine • 2. N-[3-(1-piperidinyl)propoxy]-pyridin-1-oxide-3-carboximidoyl chloride • 3. N-[2-hydroxy-3-(1-piperidinyl)propoxy]-N′-n-butyl-pyridin-1-oxide-4-carboxamidine • 4. N-[3-(1-oxido-1-piperidinyl)propoxy]-3-nitro-benzimidoyl-chloride dihydrate • 5. 2-chloro-N-[3-(4-oxido-4-morpholinyl)propoxy]-benzimidoyl chloride • 6. (R,S)-5,6-dihydro-5-[(1-piperidinyl)methyl]-3-(1-oxido-3-pyridyl)-4H-1,2,4-oxadiazine • 7. 5,6-dihydro-5-[(4-benzyl-1-piperidinyl)methyl]-3-(3-pyridyl)-4H-1,2,4-oxadiazine • 8. (R) or (S)-5,6-dihydro-5-[(2-oxo-1-piperidinyl)methyl]-3-(3-pyridyl)-4H-1,2,4-oxadiazine • 9. (+)-5,6-dihydro-5-[(1-piperidlnyl)methyl]-3-(1-oxido-3-pyridyl)4H-1,2,4-oxadiazine • 10. (R) or (S)-5,6-dihydro-5-[(1-oxido-1-piperidinyl)methyl]-3-(1-oxido-3-pyridyl)-4H-1,2,4-oxadiazine • 11. 5.6-dihydro-5-[(4-hydroxy-1-piperidinyl)methyl]-3-(3-pyridyl)-4H-1,2,4-oxadiazine • 12. N-[2-chloro-3-(1-piperidinly)propoxyl]-benzimidoyl chloride hydrochloride • 13. N-[2-hydroxy-3-(1-piperidinyl)propoxy]-pyridin-1-oxide-3-carboxamide • The biological effects of the compounds of the invention were tested by the following experiments: • Wounding migration assay in endothelial cell culture
The effect of the compounds of the invention on the wounded monolayers of human umbilical vein endothelial cells (HUVEC) were studied in a cell culture system (in vitro). After reaching confluence, the HUVEC cells were wounded according to the method of Yamamura et al (J. Surgical Res. 63, 349-354, 1996). The number of migrated cells were registered using computerized image analysis 24 hours after wounding in the absence and presence of the active agents under testing in a concentration of 10^−6 M. The active ingredient described in publication no. WO 98/06400, namely 5,6-dihydro-5-(1-piperidinyl)-methyl-3-(3-pyridyl)-4H-1,2,4-oxadiazine was used as reference compound.

Structure (SMILES)	number of migrated cells [3]	Degree of regeneration ([1]; 20 mg/kg p.o.)	vessel relaxing effect (vasodilation by acetylcholine) ([2]; Ach 10^-4 M, 20 mg/kg)	vessel relaxing effect (vasodilation by acetylcholine) ([2]; Ach 10^-5 M, 20 mg/kg)	vessel relaxing effect (vasodilation by acetylcholine) ([2]; Ach 10^-6 M, 20 mg/kg)	other results
OC1CCN(CC2CON=C(c3cccnc3)N2)CC1 (stereo not shown) [Compound 11, 5.6-dihydro-5-[(4-hydroxy-1-piperidinyl)methyl]-3-(3-pyridyl)-4H-1,2,4-oxadiazine]	51 cell/mm^2	–	–	–	–	Degree of regeneration ([1]; 10 mg/kg p.o.): 4; vessel relaxing effect (vasodilation by acetylcholine) ([2]; Ach 10^-4 M, 10 mg/kg): 86.0; vessel relaxing effect (vasodilation by acetylcholine) ([2]; Ach 10^-5 M, 10 mg/kg): 85.1; vessel relaxing effect (vasodilation by acetylcholine) ([2]; Ach 10^-6 M, 10 mg/kg): 79.7
O=C(NOCC(O)CN1CCCCC1)c1ccc[n+]([O-])c1 (stereo not shown) [Compound 13, N-[2-hydroxy-3-(1-piperidinyl)propoxy]-pyridin-1-oxide-3-carboxamide]	54 cell/mm^2	4	–	–	–	vessel relaxing effect (vasodilation by acetylcholine) ([2]; Ach 10^-4 M, dose not given): 95.2; vessel relaxing effect (vasodilation by acetylcholine) ([2]; Ach 10^-5 M, dose not given): 90.3; vessel relaxing effect (vasodilation by acetylcholine) ([2]; Ach 10^-6 M, dose not given): 88.4
Cl.ClC(=NOCC(Cl)CN1CCCCC1)c1ccccc1 (stereo not shown) [Compound 12, N-[2-chloro-3-(1-piperidinly)propoxyl]-benzimidoyl chloride hydrochloride]	60 cell/mm^2	3	80.4	83.5	82.3	–
O.O.O=[N+]([O-])c1cccc(C(Cl)=NOCCC[N+]2([O-])CCCCC2)c1 [Compound 4, N-[3-(1-oxido-1-piperidinyl)propoxy]-3-nitro-benzimidoyl-chloride dihydrate]	45 cell/mm^2	5	–	–	–	vessel relaxing effect (vasodilation by acetylcholine) ([2]; Ach 10^-4 M, 5 mg/kg): 88.1; vessel relaxing effect (vasodilation by acetylcholine) ([2]; Ach 10^-5 M, 5 mg/kg): 84.9; vessel relaxing effect (vasodilation by acetylcholine) ([2]; Ach 10^-6 M, 5 mg/kg): 82.5
c1cncc(C2=NOCC(CN3CCCCC3)N2)c1 (stereo not shown) [Reference, 5,6-dihydro-5-(1-piperidinyl)-methyl-3-(3-pyridyl)-4H-1,2,4-oxadiazine, reference compound]	30 cell/mm^2	–	81.7	80.2	77.4	–
O=C1CCCCN1CC1CON=C(c2cccnc2)N1 (single isomer, unassigned) [Compound 8, (R) or (S)-5,6-dihydro-5-[(2-oxo-1-piperidinyl)methyl]-3-(3-pyridyl)-4H-1,2,4-oxadiazine]	48 cell/mm^2	–	89.2	88.0	80.3	Degree of regeneration ([1]; 5 mg/kg p.o.): 5
[O-][n+]1cccc(C2=NOCC(CN3CCCCC3)N2)c1 (single isomer, unassigned; (+)) [Compound 9, (+)-5,6-dihydro-5-[(1-piperidinyl)methyl]-3-(1-oxido-3-pyridyl)-4H-1,2,4-oxadiazine]	52 cell/mm^2	–	–	–	–	Degree of regeneration ([1]; 5 mg/kg p.o.): 5; vessel relaxing effect (vasodilation by acetylcholine) ([2]; Ach 10^-4 M, 5 mg/kg): 93.2; vessel relaxing effect (vasodilation by acetylcholine) ([2]; Ach 10^-5 M, 5 mg/kg): 87.9; vessel relaxing effect (vasodilation by acetylcholine) ([2]; Ach 10^-6 M, 5 mg/kg): 87.0
